According to publication PMC9532970, “Rational design of photosynthetic reaction center protein maquettes” (Frontiers in Molecular Biosciences, 2022):
Where two headings read alike, the source gives them in different places.

Key:
RC maquette = assay: UV/vis cofactor binding titration into RC maquette (no heme pre-bound); conditions: for Kd: electron acceptor titrated into 1.1-4.4 µM RC maquette, pH 7.0, fit to one-site binding equation (Eq. 2), read-out: dissociation constant (KD)
Procedure: (§1) Ultraviolet/visible absorbance spectroscopy (UV/vis) was carried out on a Varian Cary-50 spectrophotometer. Cofactor binding titrations were performed at room temperature using 1 ml samples of ∼1 μM RC maquette in quartz cuvettes. Protein concentrations were calculated by assuming that Trp and Tyr residues have extinction coefficients at 280 nm (ε280nm) of 5,500 M^−1 cm^−1 and 1,490 M^−1 cm^−1, respectively. Samples of Zn 5-phenyl 15-(p-carboxyphenyl) porphyrin (ZnPCP) and Zn Newkome porphyrin were provided by Tatiana Esipova from the research group of Sergei Vinogradov ([Kodali et al., 2017]). The Zn chlorins SE370 and SE375 were produced by the laboratory of Jonathan Lindsey following previously established methods ([Aravindu et al., 2013]; [Kodali et al., 2017]). Other tetrapyrroles were purchased from Frontier Scientific, Inc. Stock solutions of water-soluble cofactors were prepared in water, and insoluble tetrapyrroles were prepared in dimethyl sulfoxide stock solutions of 100–200 µM concentration. Heme B stock concentrations were measured by hemochrome assay ([Berry and Trumpower, 1987]). Stock concentrations of other tetrapyrrole cofactors were estimated by mass measurements.
(§2) For each titration, a cofactor stock solution was titrated into the protein solution in the cuvette. After each addition of cofactor, at least 10 min were allowed for equilibration before collecting a UV/vis spectrum. Cofactor was typically added in steps of 0.1 equivalents of cofactor per protein until after the binding capacity of the protein appeared to have been reached, at which point 0.2 equivalents of cofactor per protein were added at a time. Binding titrations continued until at total of at least three equivalents of cofactor per protein had been added. To determine dissociation constants, we used the following one-site binding equation: A=ctotɛfree+(ɛbound−ɛfree)KD+Ptot+ctot−(KD+Ptot+ctot)^2−4Ptotctot/2+b (2)
(§3) In Eq. 2, A represents the total absorbance at a given wavelength, c tot is the total cofactor concentration, P tot is the total protein concentration, K D is the dissociation constant, εfree is the extinction coefficient of unbound cofactor in solution, εbound is the extinction coefficient of protein-bound cofactor, and b is the absorbance of the sample when c tot is zero.

[1] = molecular target: RC maquette-heme B complex; assay: UV/vis pigment binding titration into RC maquette with heme B bound; conditions: RC maquette (His124) with heme B bound to the acceptor site; for Kd: read-out: Dissociation constant (KD)
Procedure: as §1, §2, §3

cyt. b 562 = conditions: read-out: KD of CoPPIX for cyt. b 562, cited from earlier work
DH maquette = assay: UV/vis heme binding titration into DH maquette; conditions: ferric heme B into 0.5 µM DH maquette, 50 mM NaCl, 10 mM MOPS pH 7.5; read-out: dissociation constant (KD)

Molecule	Kd (RC maquette)	Dissociation constant (KD), result in words [1]	other results
CC(=O)C1=C(C)C2=Cc3c(C(C)=O)c(C)c4[n]3[Fe][n]3c(c(C)c(CCC(=O)O)c3=CC3=NC(=C4)C(C)=C3CCC(=O)O)=CC1=N2 [Fe(III)-DADPIX, Fe(III) 2,4-diacetyl deuteroporphyrin IX]	< 0.01 µM	–	–
CCC1=C(C)c2cc3[n-]c(cc4[n-]c(cc5nc(cc1n2)C(C)=C5CC)c(C)c4CCC(=O)O)c(CCC(=O)O)c3C.[Zn+2] [Zn mesoporphyrin IX (ZnMPIX), Zn mesoporphyrin IX]	–	no binding detected	–
C=Cc1c(C)c2cc3[nH]c(cc4nc(cc5nc(cc1[nH]2)C(C)=C5CCC(=O)[O-])C(CCC(=O)[O-])=C4C)c(C)c3C=C.[Co+2] [CoPPIX, Co(III) protoporphyrin IX]	0.25 µM	–	Kd (cyt. b 562; lower end of literature range, ref Alcala-Torano et al., 2021): 0.045 µM; Kd (cyt. b 562; upper end of literature range, ref Sommer et al., 2016): 8.9 µM; CoPPIX affinity relative to heme B affinity of the RC maquette (times weaker) (RC maquette; KD 250 nM vs <10 nM): about 25 times
O=C(O)c1ccc(-c2c3nc(c(-c4ccc(C(=O)O)cc4)c4ccc([nH]4)c(-c4ccc(C(=O)O)cc4)c4nc(c(-c5ccc(C(=O)O)cc5)c5ccc2[nH]5)C=C4)C=C3)cc1 [Zn meso-tetra(4-carboxyphenyl) prophyrin]	–	–	Kd [1]: 5 µM
C=CC1=C(C)c2cc3[n-]c(cc4[n-]c(cc5nc(cc1n2)C(C)=C5C=C)c(C)c4CCC(=O)O)c(CCC(=O)O)c3C.[Fe+2] [heme B]	< 0.01 µM	–	Kd (DH maquette): < 0.01 µM
C=CC1=C(C)c2cc3[nH]c(cc4[nH]c(cc5nc(cc1n2)C(C)=C5C=C)c(C)c4CCC(=O)O)c(CCC(=O)O)c3C [Zn protoporphyrin IX (ZnPPIX), Zn protoporphyrin IX]	–	–	Kd [1]: 2 µM
C1=Cc2nc1c(-c1ccccc1)c1ccc([n-]1)c(-c1ccncc1)c1nc(c(-c3ccccc3)c3ccc([n-]3)c2-c2ccncc2)C=C1.[Zn+2] [Zn meso-di(4-pyridyl)-diphenyl porphyrin]	–	no binding detected	–
Zn chlorin e6 [Zn chlorin e6 (ZnCe6)]	–	no binding detected	–
